Data as given in patent US20210284639A1, “TYROSINE AMIDE DERIVATIVES AS RHO- KINASE INHIBITORS” (CHIESI FARMACEUTICI S.p.A., priority 2018, published 2021).
pKi: −log10 of the molar value.

Experiments:
ROCK 1 (Rho kinase 1) = ROCK 1 (Rho kinase 1) (Homo sapiens, UniProt Q13464); test: In vitro inhibitory activity assay (ADP-Glo), Rho kinase 1; assay type: biochemical; settings: Ki by Cheng-Prusoff from IC50; 10 μM ATP, 25° C.
Procedure: (§1) In Vitro Inhibitory Activity Assay Description
(§2) The effectiveness of compounds of the present invention to inhibit Rho kinase activity can be determined in a 10 μl assay containing 40 mM Tris pH7.5, 20 mM MgCl2 0.1 mg/ml BSA, 50 μM DTT and 2.5 μM peptide substrate (Myelin Basic Protein) using an ADP-Glo kit (Promega). Compounds were dissolved in DMSO such that the final concentration of DMSO was 1% in the assay. All reactions/incubations are performed at 25° C. Compound (2 μl) and either Rho kinase 1 or 2 (4 μl) were mixed and incubated for 30 mins. Reactions were initiated by addition of ATP (4 μl) such that the final concentration of ATP in the assay was 10 μM. After a 1 hour incubation 10 μl of ADP-Glo Reagent was added and after a further 45 minute incubation 20 μl of Kinase Detection Buffer was added and the mixture incubated for a further 30 minutes. The luminescent signal was measured on a luminometer. […] Compounds were tested in dose-response format and the inhibition of kinase activity was calculated at each concentration of compound. To determine the IC50 (concentration of compound required to inhibit 50% of the enzyme activity) data were fit to a plot of % inhibition vs Log10 compound concentration using a sigmoidal fit with a variable slope and fixing the maximum to 100% and the minimum to 0%. To determine the Ki values the Cheng-Prusoff equation was utilized (Ki=IC50/(1+[S]/Km).

ROCK 2 (Rho kinase 2) = ROCK 2 (Rho kinase 2) (Homo sapiens, UniProt O75116); test: In vitro inhibitory activity assay (ADP-Glo), Rho kinase 2; assay type: biochemical; settings: Ki by Cheng-Prusoff from IC50; 10 μM ATP, 25° C.
Procedure: as §1, §2

Sequence of ROCK 2 (Rho kinase 2) (O75116 whole entry): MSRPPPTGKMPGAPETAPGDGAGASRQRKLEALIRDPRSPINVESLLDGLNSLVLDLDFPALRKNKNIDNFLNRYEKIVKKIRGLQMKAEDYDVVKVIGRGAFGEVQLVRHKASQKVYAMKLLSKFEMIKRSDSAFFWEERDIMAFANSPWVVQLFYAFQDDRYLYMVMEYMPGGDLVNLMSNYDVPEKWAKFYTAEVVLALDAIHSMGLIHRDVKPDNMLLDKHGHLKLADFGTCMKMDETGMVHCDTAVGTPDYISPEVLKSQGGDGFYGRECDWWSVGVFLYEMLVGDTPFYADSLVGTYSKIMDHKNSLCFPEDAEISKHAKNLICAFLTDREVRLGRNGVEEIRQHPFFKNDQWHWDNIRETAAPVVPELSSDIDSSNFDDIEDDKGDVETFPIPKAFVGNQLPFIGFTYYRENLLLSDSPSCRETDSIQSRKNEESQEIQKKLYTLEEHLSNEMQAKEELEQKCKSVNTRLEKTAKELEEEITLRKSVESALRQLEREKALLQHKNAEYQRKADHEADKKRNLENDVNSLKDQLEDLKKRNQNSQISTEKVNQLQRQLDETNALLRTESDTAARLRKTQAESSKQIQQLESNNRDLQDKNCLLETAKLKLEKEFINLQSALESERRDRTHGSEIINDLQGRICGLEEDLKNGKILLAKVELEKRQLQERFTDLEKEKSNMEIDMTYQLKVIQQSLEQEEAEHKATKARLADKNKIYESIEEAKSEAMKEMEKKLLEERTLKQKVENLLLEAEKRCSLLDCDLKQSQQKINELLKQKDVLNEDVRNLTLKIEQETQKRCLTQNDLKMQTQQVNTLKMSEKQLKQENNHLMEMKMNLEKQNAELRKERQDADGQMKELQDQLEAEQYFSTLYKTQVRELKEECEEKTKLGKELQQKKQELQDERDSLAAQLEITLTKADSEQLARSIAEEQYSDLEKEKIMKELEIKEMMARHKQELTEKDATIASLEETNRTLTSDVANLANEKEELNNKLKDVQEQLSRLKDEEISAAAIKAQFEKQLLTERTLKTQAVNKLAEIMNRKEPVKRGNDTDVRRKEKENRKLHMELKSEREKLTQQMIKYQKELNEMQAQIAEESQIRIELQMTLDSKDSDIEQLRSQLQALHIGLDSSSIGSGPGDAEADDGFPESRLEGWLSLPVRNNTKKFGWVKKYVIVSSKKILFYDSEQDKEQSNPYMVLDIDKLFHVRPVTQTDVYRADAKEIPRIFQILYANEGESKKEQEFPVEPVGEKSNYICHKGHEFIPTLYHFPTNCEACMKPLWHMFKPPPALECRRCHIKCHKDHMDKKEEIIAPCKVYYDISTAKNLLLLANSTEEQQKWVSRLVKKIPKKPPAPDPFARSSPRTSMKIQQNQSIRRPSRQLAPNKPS
Sequence of ROCK 1 (Rho kinase 1) (Q13464 whole entry): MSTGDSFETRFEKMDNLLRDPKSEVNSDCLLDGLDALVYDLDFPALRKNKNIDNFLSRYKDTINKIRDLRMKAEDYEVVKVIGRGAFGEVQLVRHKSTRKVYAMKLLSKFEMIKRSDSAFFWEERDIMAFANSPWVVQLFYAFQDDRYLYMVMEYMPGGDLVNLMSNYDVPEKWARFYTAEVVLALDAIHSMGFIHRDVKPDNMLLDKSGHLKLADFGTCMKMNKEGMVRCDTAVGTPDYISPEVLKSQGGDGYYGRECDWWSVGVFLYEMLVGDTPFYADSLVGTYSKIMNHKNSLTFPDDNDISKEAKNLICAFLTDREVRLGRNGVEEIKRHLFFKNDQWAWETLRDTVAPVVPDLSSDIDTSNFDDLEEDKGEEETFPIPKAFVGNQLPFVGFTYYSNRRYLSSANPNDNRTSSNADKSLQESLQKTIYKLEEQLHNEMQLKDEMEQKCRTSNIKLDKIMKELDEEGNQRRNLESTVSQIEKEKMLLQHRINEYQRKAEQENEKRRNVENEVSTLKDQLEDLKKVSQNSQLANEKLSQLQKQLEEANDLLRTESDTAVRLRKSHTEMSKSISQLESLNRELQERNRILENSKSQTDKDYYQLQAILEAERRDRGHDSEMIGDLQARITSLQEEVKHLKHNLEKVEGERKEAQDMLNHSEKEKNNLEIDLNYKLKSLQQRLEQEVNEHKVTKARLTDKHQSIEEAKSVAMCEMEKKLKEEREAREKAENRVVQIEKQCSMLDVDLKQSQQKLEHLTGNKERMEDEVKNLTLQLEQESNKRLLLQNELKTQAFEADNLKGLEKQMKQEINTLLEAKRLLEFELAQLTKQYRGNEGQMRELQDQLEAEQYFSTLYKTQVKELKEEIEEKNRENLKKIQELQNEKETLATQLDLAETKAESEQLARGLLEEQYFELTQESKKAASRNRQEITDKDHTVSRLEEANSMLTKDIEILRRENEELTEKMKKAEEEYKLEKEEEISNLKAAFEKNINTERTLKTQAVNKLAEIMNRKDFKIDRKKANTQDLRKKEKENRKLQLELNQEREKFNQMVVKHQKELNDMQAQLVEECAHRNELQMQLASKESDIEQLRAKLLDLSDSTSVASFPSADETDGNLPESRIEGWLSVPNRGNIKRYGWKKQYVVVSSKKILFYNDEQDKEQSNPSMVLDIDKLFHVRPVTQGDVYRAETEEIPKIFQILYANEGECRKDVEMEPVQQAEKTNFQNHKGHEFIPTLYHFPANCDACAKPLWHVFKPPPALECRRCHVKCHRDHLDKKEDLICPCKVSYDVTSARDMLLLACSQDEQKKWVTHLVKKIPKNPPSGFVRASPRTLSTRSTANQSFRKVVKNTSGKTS

CN1CCC(NC(=O)[C@@H](N)Cc2ccc(Oc3ccnc4[nH]cc(C5CC5)c34)c(F)c2)CC1 [Example 40, (S)-2-Amino-3-(4-((3-cyclopropyl-1H-pyrrolo[2,3-b]pyridin-4-yl)oxy)-3-fluorophenyl)-N-(1-methylpiperidin-4-yl)propanamide]
pKi (ROCK 1 (Rho kinase 1)): > 8.52 | pKi (ROCK 2 (Rho kinase 2)): > 8.52

Cc1c[nH]c2nccc(Oc3ccc(C[C@H](N)C(=O)NC4(CO)CCC4)cc3F)c12 [Example 30, (S)-2-amino-3-(3-fluoro-4-((3-methyl-1H-pyrrolo[2,3-b]pyridin-4-yl)oxy)phenyl)-N-(1-(hydroxymethyl)cyclobutyl)propanamide]
pKi (ROCK 1 (Rho kinase 1)): > 8.52 | pKi (ROCK 2 (Rho kinase 2)): > 8.52

Cc1c[nH]c2nccc(Oc3ccc(C[C@H](N)C(=O)NC4CCN(CC(C)C)CC4)cc3F)c12 [Example 6, (S)-2-Amino-3-(3-fluoro-4-((3-methyl-1H-pyrrolo[2,3-b]pyridin-4-yl)oxy)phenyl)-N-(1-isobutylpiperidin-4-yl)propanamide]
pKi (ROCK 1 (Rho kinase 1)): > 8.52 | pKi (ROCK 2 (Rho kinase 2)): > 8.52

CNC(=O)C1(NC(=O)[C@@H](N)Cc2ccc(Oc3ccnc4[nH]cc(C)c34)c(F)c2)CCCC1 [Example 28, (S)-1-(2-amino-3-(3-fluoro-4-((3-methyl-1H-pyrrolo[2,3-b]pyridin-4-yl)oxy)phenyl)propanamido)-N-methylcyclopentane-1-carboxamide]
pKi (ROCK 1 (Rho kinase 1)): > 8.52 | pKi (ROCK 2 (Rho kinase 2)): > 8.52

Cc1cccc(S(=O)(=O)C2CCN(C(=O)[C@@H](N)Cc3ccc(Oc4ccnc5[nH]cc(C)c45)c(F)c3)CC2)c1 [Example 31, (S)-2-Amino-3-(3-fluoro-4-((3-methyl-1H-pyrrolo[2,3-b]pyridin-4-yl)oxy)phenyl)-1-(4-(m-tolylsulfonyl)piperidin-1-yl)propan-1-one]
pKi (ROCK 1 (Rho kinase 1)): > 8.52 | pKi (ROCK 2 (Rho kinase 2)): > 8.52

Cc1c[nH]c2nccc(Oc3ccc(C[C@H](N)C(=O)N[C@@H]4CCN(C)C4)cc3F)c12 [Example 10, (S)-2-Amino-3-(3-fluoro-4-((3-methyl-1H-pyrrolo[2,3-b]pyridin-4-yl)oxy)phenyl)-N-((R)-1-methylpyrrolidin-3-yl)propanamide]
pKi (ROCK 1 (Rho kinase 1)): > 8.52 | pKi (ROCK 2 (Rho kinase 2)): > 8.52

CNC(=O)[C@@H](N)Cc1ccc(Oc2ccnc3[nH]cc(C)c23)c(F)c1 [Example 46, (S)-2-amino-3-(3-fluoro-4-((3-methyl-1H-pyrrolo[2,3-b]pyridin-4-yl)oxy)phenyl)-N-methylpropanamide]
pKi (ROCK 1 (Rho kinase 1)): > 8.52 | pKi (ROCK 2 (Rho kinase 2)): > 8.52

Cc1c[nH]c2ncnc(Oc3ccc(C[C@H](N)C(=O)NC4CCN(C5CC5)CC4)cc3F)c12 [Example 39, (S)-2-Amino-N-(1-cyclopropylpiperidin-4-yl)-3-(3-fluoro-4-((5-methyl-7H-pyrrolo[2,3-d]pyrimidin-4-yl)oxy)phenyl)propanamide]
pKi (ROCK 1 (Rho kinase 1)): > 8.52 | pKi (ROCK 2 (Rho kinase 2)): > 8.52

Cc1c[nH]c2nccc(Oc3ccc(C[C@H](N)C(=O)NC4CCN(C5CC5)CC4)cc3F)c12 [Example 5, (S)-2-Amino-N-(1-cyclopropylpiperidin-4-yl)-3-(3-fluoro-4-((3-methyl-1H-pyrrolo[2,3-b]pyridin-4-yl)oxy)phenyl)propanamide]
pKi (ROCK 1 (Rho kinase 1)): > 8.52 | pKi (ROCK 2 (Rho kinase 2)): > 8.52

CNC(=O)C1(NC(=O)[C@@H](N)Cc2ccc(Oc3ccnc4[nH]cc(C)c34)c(F)c2)CCCCC1 [Example 29, (S)-1-(2-amino-3-(3-fluoro-4-((3-methyl-1H-pyrrolo[2,3-b]pyridin-4-yl)oxy)phenyl)propanamido)-N-methylcyclohexane-1-carboxamide]
pKi (ROCK 1 (Rho kinase 1)): > 8.52 | pKi (ROCK 2 (Rho kinase 2)): > 8.52

Cc1c[nH]c2nccc(Oc3ccc(C[C@H](N)C(=O)N4CCC(O)(CO)CC4)cc3F)c12 [Example 9, (S)-2-Amino-3-(3-fluoro-4-((3-methyl-1H-pyrrolo[2,3-b]pyridin-4-yl)oxy)phenyl)-1-(4-hydroxy-4-(hydroxymethyl)piperidin-1-yl)propan-1-one]
pKi (ROCK 1 (Rho kinase 1)): > 8.52 | pKi (ROCK 2 (Rho kinase 2)): > 8.52

Cc1c[nH]c2nccc(Oc3ccc(C[C@H](N)C(=O)NC4CCN(C5CCC5)CC4)cc3F)c12 [Example 1, (S)-2-Amino-N-(1-cyclobutylpiperidin-4-yl)-3-(3-fluoro-4-((3-methyl-1H-pyrrolo[2,3-b]pyridin-4-yl)oxy)phenyl)propanamide]
pKi (ROCK 1 (Rho kinase 1)): > 8.52 | pKi (ROCK 2 (Rho kinase 2)): > 8.52

Cc1c[nH]c2nccc(Oc3ccc(C[C@H](N)C(=O)N4CCc5ncccc5C4)cc3F)c12 [Example 26, (S)-2-amino-1-(7,8-dihydro-1,6-naphthyridin-6(5H)-yl)-3-(3-fluoro-4-((3-methyl-1H-pyrrolo[2,3-b]pyridin-4-yl)oxy)phenyl)propan-1-one]
pKi (ROCK 1 (Rho kinase 1)): > 8.52 | pKi (ROCK 2 (Rho kinase 2)): > 8.52

Cc1c[nH]c2nccc(Oc3ccc(C[C@H](N)C(=O)NC4(C)CCN(C)CC4)cc3F)c12 [Example 4, (S)-2-Amino-N-(1,4-dimethylpiperidin-4-yl)-3-(3-fluoro-4-((3-methyl-1H-pyrrolo[2,3-b]pyridin-4-yl)oxy)phenyl)propanamide]
pKi (ROCK 1 (Rho kinase 1)): > 8.52 | pKi (ROCK 2 (Rho kinase 2)): > 8.52

Cc1c[nH]c2nccc(Oc3ccc(C[C@H](N)C(=O)NC4(CO)CCN(C5CC5)CC4)cc3F)c12 [Example 20, (S)-2-Amino-N-(1-cyclopropyl-4-(hydroxymethyl)piperidin-4-yl)-3-(3-fluoro-4-((3-methyl-1H-pyrrolo[2,3-b]pyridin-4-yl)oxy)phenyl)propanamide]
pKi (ROCK 1 (Rho kinase 1)): > 8.52 | pKi (ROCK 2 (Rho kinase 2)): > 8.52

CNC(=O)C1(NC(=O)[C@@H](N)Cc2ccc(Oc3ncnc4[nH]cc(C)c34)c(F)c2)CCCCC1 [Example 33, (S)-1-(2-amino-3-(3-fluoro-4-((5-methyl-7H-pyrrolo[2,3-d]pyrimidin-4-yl)oxy)phenyl)propanamido)-N-methylcyclohexanecarboxamide]
pKi (ROCK 1 (Rho kinase 1)): > 8.52 | pKi (ROCK 2 (Rho kinase 2)): > 8.52

Cc1c[nH]c2ncnc(Oc3ccc(C[C@H](N)C(=O)N4CC[C@H](S(=O)(=O)c5ccccc5)C4)cc3F)c12 [Example 38, (S)-2-Amino-3-(3-fluoro-4-((5-methyl-7H-pyrrolo[2,3-d]pyrimidin-4-yl)oxy)phenyl)-1-((S)-3-(phenylsulfonyl)pyrrolidin-1-yl)propan-1-one]
pKi (ROCK 1 (Rho kinase 1)): > 8.52 | pKi (ROCK 2 (Rho kinase 2)): > 8.52

Cc1c[nH]c2nccc(Oc3c(F)cc(C[C@H](N)C(=O)N4CCC(S(=O)(=O)c5ccccc5)CC4)cc3F)c12 [Example 42, (S)-2-amino-3-(3,5-difluoro-4-((3-methyl-1H-pyrrolo[2,3-b]pyridin-4-yl)oxy)phenyl)-1-(4-(phenylsulfonyl)piperidin-1-yl)propan-1-one]
pKi (ROCK 1 (Rho kinase 1)): > 8.52 | pKi (ROCK 2 (Rho kinase 2)): > 8.52

Cc1c[nH]c2nccc(Oc3ccc(C[C@H](N)C(=O)NC4CCN(C5CCOC5)CC4)cc3F)c12 (stereo partly drawn) [Example 2, (2S)-2-Amino-3-(3-fluoro-4-((3-methyl-1H-pyrrolo[2,3-b]pyridin-4-yl)oxy)phenyl)-N-(1-(tetrahydrofuran-3-yl)piperidin-4-yl)propanamide]
pKi (ROCK 1 (Rho kinase 1)): > 8.52 | pKi (ROCK 2 (Rho kinase 2)): > 8.52

Cc1c[nH]c2nccc(Oc3ccc(C[C@H](N)C(=O)NC4CCCN(C)C4)cc3F)c12 (single isomer, unassigned) [Example 17]
pKi (ROCK 1 (Rho kinase 1)): 7.52 to 8.52 | pKi (ROCK 2 (Rho kinase 2)): 7.52 to 8.52

Cc1c[nH]c2nccc(Oc3ccc(C[C@H](N)C(=O)NC4(C(N)=O)CCN(C5CC5)CC4)cc3F)c12 [Example 21, (S)-4-(2-Amino-3-(3-fluoro-4-((3-methyl-1H-pyrrolo[2,3-b]pyridin-4-yl)oxy)phenyl)propanamido)-1-cyclopropylpiperidine-4-carboxamide]
pKi (ROCK 1 (Rho kinase 1)): > 8.52 | pKi (ROCK 2 (Rho kinase 2)): > 8.52
